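The compound was tested at five concentrations on cells cultured in 96-well plates, with a 48-hour exposure period. At the GI50, growth is halved. Definition used: TGI = concentration required for complete inhibition of growth.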
Experiments:
Experiment in all cases: inhibition of tumour cell growth, NCI panel, 48 h; in the data active means GI50 below about 0.43 µM; inactive means the rest
HT29 colon = test system: HT29 colon
LOX IMVI melanoma = test system: LOX IMVI melanoma
M14 melanoma = test system: M14 melanoma
MALME-3M melanoma = test system: MALME-3M melanoma
MDA-N = test system: MDA-N
NCI-H23 lung = test system: NCI-H23 lung
NCI-H460 lung = test system: NCI-H460 lung
OVCAR-4 ovarian = test system: OVCAR-4 ovarian
OVCAR-5 ovarian = test system: OVCAR-5 ovarian
TK-10 renal = test system: TK-10 renal
UO-31 renal = test system: UO-31 renal
K-562 leukemia = test system: K-562 leukemia

O=c1c2cc([N+](=O)[O-])cnc2sn1-c1ccc([N+](=O)[O-])cc1
49.4 µM: TGI (LOX IMVI melanoma)
55.8 µM: TGI (HT29 colon)
53 µM: TGI (MALME-3M melanoma)
> 100 µM: TGI (M14 melanoma) | TGI (MDA-N) | TGI (NCI-H23 lung) | TGI (NCI-H460 lung) | TGI (OVCAR-5 ovarian) | TGI (TK-10 renal) | TGI (UO-31 renal)
85.7 µM: TGI (OVCAR-4 ovarian)

O=C(CCN1CCCCC1)C(=Cc1ccccc1)C(=O)CCN1CCCCC1
> 100 µM: TGI (HT29 colon) | TGI (LOX IMVI melanoma) | TGI (NCI-H23 lung) | TGI (NCI-H460 lung) | TGI (OVCAR-4 ovarian) | TGI (OVCAR-5 ovarian) | TGI (UO-31 renal)
> 55.2 µM: TGI (K-562 leukemia)
inactive: GI50 (HT29 colon) 76.3 µM | GI50 (K-562 leukemia) 3.46 µM | GI50 (LOX IMVI melanoma) 3.39 µM

CN1C(=O)C2CCC(=O)N2c2cccnc21 (configuration not stated)
> 100 µM: TGI (HT29 colon) | TGI (K-562 leukemia) | TGI (LOX IMVI melanoma) | TGI (MALME-3M melanoma) | TGI (MDA-N) | TGI (NCI-H23 lung) | TGI (NCI-H460 lung) | TGI (OVCAR-4 ovarian) | TGI (TK-10 renal) | TGI (UO-31 renal)

C=C1C(=O)O[C@@H]2C(=O)[C@@H](C)CCC/C(C)=C/CC[C@@]3(C)O[C@@H]3C[C@@H]12
81.6 µM: TGI (TK-10 renal)
31.1 µM: TGI (HT29 colon)
36.9 µM: TGI (LOX IMVI melanoma)
34.8 µM: TGI (K-562 leukemia)
> 100 µM: TGI (M14 melanoma) | TGI (MALME-3M melanoma) | TGI (MDA-N) | TGI (NCI-H23 lung) | TGI (OVCAR-4 ovarian) | TGI (OVCAR-5 ovarian) | TGI (UO-31 renal)

O=c1[nH]c(Nc2cccc(CC(F)(F)F)c2)nc2nc[nH]c12
> 100 µM: TGI (HT29 colon) | TGI (LOX IMVI melanoma) | TGI (M14 melanoma) | TGI (MALME-3M melanoma) | TGI (MDA-N) | TGI (NCI-H23 lung) | TGI (NCI-H460 lung) | TGI (OVCAR-4 ovarian) | TGI (OVCAR-5 ovarian) | TGI (TK-10 renal) | TGI (UO-31 renal)

c1csc(-c2ccc(-c3cccc4nsnc34)s2)c1
> 100 µM: TGI (K-562 leukemia) | TGI (LOX IMVI melanoma) | TGI (M14 melanoma) | TGI (MALME-3M melanoma) | TGI (MDA-N) | TGI (NCI-H23 lung) | TGI (NCI-H460 lung) | TGI (OVCAR-4 ovarian) | TGI (OVCAR-5 ovarian) | TGI (TK-10 renal) | TGI (UO-31 renal)

C1CN(c2nc3c(nnc4nc(N5CCOCC5)sc43)s2)CCO1
> 100 µM: TGI (HT29 colon) | TGI (K-562 leukemia) | TGI (LOX IMVI melanoma) | TGI (M14 melanoma) | TGI (MALME-3M melanoma) | TGI (MDA-N) | TGI (NCI-H23 lung) | TGI (OVCAR-4 ovarian) | TGI (OVCAR-5 ovarian) | TGI (TK-10 renal) | TGI (UO-31 renal)

N#Cc1c(-c2ccccc2)/c(=C\Nc2cccc(C(F)(F)F)c2)c(=O)n2c1nc1ccccc12
> 100 µM: TGI (LOX IMVI melanoma) | TGI (M14 melanoma) | TGI (MALME-3M melanoma) | TGI (NCI-H23 lung) | TGI (NCI-H460 lung) | TGI (OVCAR-4 ovarian) | TGI (OVCAR-5 ovarian) | TGI (TK-10 renal)
22.1 µM: TGI (UO-31 renal)
91.4 µM: TGI (MDA-N)

N#CC1(C#N)N[C@@H](c2ccsc2)[C@H]2C(=O)N(c3ccccc3)C(=O)[C@H]21
> 100 µM: TGI (HT29 colon) | TGI (K-562 leukemia) | TGI (LOX IMVI melanoma) | TGI (MALME-3M melanoma) | TGI (MDA-N) | TGI (NCI-H23 lung) | TGI (TK-10 renal) | TGI (UO-31 renal)

Cc1cc(Cc2cc(C)c(N)cc2N)c(N)cc1N
> 100 µM: TGI (HT29 colon) | TGI (K-562 leukemia) | TGI (LOX IMVI melanoma) | TGI (M14 melanoma) | TGI (MDA-N) | TGI (NCI-H23 lung) | TGI (NCI-H460 lung) | TGI (OVCAR-4 ovarian) | TGI (OVCAR-5 ovarian) | TGI (TK-10 renal) | TGI (UO-31 renal)

C#CCNC(CS)C(=O)O (configuration not stated)
> 100 µM: TGI (HT29 colon) | TGI (K-562 leukemia) | TGI (LOX IMVI melanoma) | TGI (M14 melanoma) | TGI (MALME-3M melanoma) | TGI (NCI-H23 lung) | TGI (NCI-H460 lung) | TGI (OVCAR-4 ovarian) | TGI (OVCAR-5 ovarian) | TGI (TK-10 renal) | TGI (UO-31 renal)

Cc1cn2c(/C=N/N=C(N)N)c(-c3cccc([N+](=O)[O-])c3)nc2s1
5.5 µM: TGI (OVCAR-5 ovarian)
3.92 µM: TGI (TK-10 renal)
3.94 µM: TGI (MALME-3M melanoma)
1.86 µM: TGI (HT29 colon)
19.6 µM: TGI (UO-31 renal)
3.78 µM: TGI (NCI-H460 lung)
1.07 µM: TGI (OVCAR-4 ovarian)
2.22 µM: TGI (LOX IMVI melanoma)
5.11 µM: TGI (NCI-H23 lung)
4.36 µM: TGI (M14 melanoma)

O=C1/C(=C\c2ccccc2)C(NC2CCCCC2)c2ccccc21 (configuration not stated)
3.93 µM: TGI (OVCAR-4 ovarian)
3.8 µM: TGI (MDA-N)
3.01 µM: TGI (MALME-3M melanoma)
2.31 µM: TGI (UO-31 renal)
2.28 µM: TGI (NCI-H23 lung)
3.18 µM: TGI (M14 melanoma)
10.4 µM: TGI (OVCAR-5 ovarian)
8.02 µM: TGI (NCI-H460 lung)
5.07 µM: TGI (K-562 leukemia)
2.59 µM: TGI (TK-10 renal)
3.33 µM: TGI (LOX IMVI melanoma)

c1ccc(-c2nc(-c3ccccc3SSc3ccccc3-c3nc(-c4ccccc4)nn3-c3ccccc3)n(-c3ccccc3)n2)cc1
> 100 µM: TGI (K-562 leukemia) | TGI (LOX IMVI melanoma) | TGI (M14 melanoma) | TGI (MALME-3M melanoma) | TGI (MDA-N) | TGI (NCI-H23 lung) | TGI (NCI-H460 lung) | TGI (OVCAR-5 ovarian) | TGI (TK-10 renal) | TGI (UO-31 renal)

COc1cc2c(c(OC)c1OC)C(=O)[C@@H]1[C@H]2N1C(N)=O
> 100 µM: TGI (HT29 colon) | TGI (K-562 leukemia) | TGI (LOX IMVI melanoma) | TGI (M14 melanoma) | TGI (MALME-3M melanoma) | TGI (MDA-N) | TGI (NCI-H23 lung) | TGI (NCI-H460 lung) | TGI (OVCAR-5 ovarian) | TGI (TK-10 renal) | TGI (UO-31 renal)

CCOC(=O)c1csc(NC(=O)CN2CCOCC2)n1
> 100 µM: TGI (HT29 colon) | TGI (K-562 leukemia) | TGI (LOX IMVI melanoma) | TGI (M14 melanoma) | TGI (MDA-N) | TGI (NCI-H23 lung) | TGI (NCI-H460 lung) | TGI (OVCAR-4 ovarian) | TGI (OVCAR-5 ovarian) | TGI (TK-10 renal) | TGI (UO-31 renal)

COCO[C@@H]1C[C@H]2C(=O)Nc3ccccc3C(=O)N2C1
> 100 µM: TGI (HT29 colon) | TGI (LOX IMVI melanoma) | TGI (M14 melanoma) | TGI (MALME-3M melanoma) | TGI (MDA-N) | TGI (NCI-H23 lung) | TGI (OVCAR-4 ovarian) | TGI (OVCAR-5 ovarian) | TGI (TK-10 renal)
74.5 µM: TGI (UO-31 renal)

NC(=O)NCCCC(NC(=O)OCCCCn1ccc(=O)[nH]c1=O)C(=O)O (configuration not stated)
> 100 µM: TGI (HT29 colon) | TGI (K-562 leukemia) | TGI (LOX IMVI melanoma) | TGI (M14 melanoma) | TGI (MDA-N) | TGI (NCI-H23 lung) | TGI (NCI-H460 lung) | TGI (OVCAR-4 ovarian) | TGI (OVCAR-5 ovarian) | TGI (TK-10 renal) | TGI (UO-31 renal)

CCC(C(=O)O)c1ccc(OC)cc1 (configuration not stated)
> 100 µM: TGI (HT29 colon) | TGI (K-562 leukemia) | TGI (LOX IMVI melanoma) | TGI (M14 melanoma) | TGI (MALME-3M melanoma) | TGI (NCI-H23 lung) | TGI (NCI-H460 lung) | TGI (OVCAR-4 ovarian) | TGI (OVCAR-5 ovarian) | TGI (TK-10 renal) | TGI (UO-31 renal)

Cc1nc2n(c1/C=C1/C(=O)Nc3cccc(Cl)c31)CCS2
> 100 µM: TGI (HT29 colon) | TGI (K-562 leukemia) | TGI (LOX IMVI melanoma) | TGI (M14 melanoma) | TGI (MALME-3M melanoma) | TGI (MDA-N) | TGI (NCI-H23 lung) | TGI (NCI-H460 lung) | TGI (OVCAR-5 ovarian) | TGI (TK-10 renal) | TGI (UO-31 renal)

From PubChem BioAssay (NCI)
